Assay results: patent US6444644B1, “Anticoagulant peptide fragments derived from apolipoprotein B-100” (University College London, priority 1996, dated 2002)
No end group written: not given here.

Legend:
thromboplastin [1] = molecular target: T1, thromboplastin (Homo sapiens, UniProt P13726); test: Inhibition of thromboplastin in the presence of plasma; format: biochemical
T1 construct: purchased Gamidor Ltd. (Oxfordshire, U.K.)
Experimental: […] The samples were then assayed by addition of 100 μl of […] CaCl2 solution and measurement on the coagulometer. The percentage inhibition in each case calculated against a similarly treated sample, containing thromboplastin only.

[2] = molecular target: T2, thromboplastin, reconstituted in phosphatidylcholine (Homo sapiens, UniProt P13726); test: Inhibition of delipidated thromboplastin reconstituted in phosphatidylcholine; format: biochemical; details: 500 nM sample, 37° C., 30 min
T2 construct: purchased Gamidor Ltd. (Oxfordshire, U.K.)
T2 sequence (P13726 33-295): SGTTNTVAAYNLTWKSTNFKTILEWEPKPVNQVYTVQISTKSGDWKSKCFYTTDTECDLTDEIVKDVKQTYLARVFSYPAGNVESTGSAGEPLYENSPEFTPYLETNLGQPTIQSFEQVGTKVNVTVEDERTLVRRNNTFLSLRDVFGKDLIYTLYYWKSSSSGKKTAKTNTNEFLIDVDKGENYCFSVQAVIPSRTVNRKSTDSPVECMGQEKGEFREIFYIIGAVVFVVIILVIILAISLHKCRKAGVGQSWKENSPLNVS
Experimental: In other experiments, recombinant thromboplastin (1 mg/ml) was delipidated with chloroform/methanol as described previously, to remove phosphatidylserine and other lipids and reconstituted with phosphatidylcholine (1 mg/ml) to differentiate between the effects of the prepared samples on the protein moiety of thromboplastin and any effects on the thromboplastin-associated phosphatidylserine. […] The percentage inhibition was calculated against the control sample.
Recombinant thromboplastin was delipidated to remove phosphatidylserine and other lipids and reconstituted at 1 mg/ml with phosphatidylcholine (1 mg/ml). […] The % Inhibition was calculated against the control. The data were obtained from 3 separate experiments.

thrombin = thrombin (Homo sapiens, UniProt P00734); test: Influence on thrombin activity (amidolytic and clotting); format: biochemical; details: 500 nM peptide, thrombin 100 nM
Experimental: Samples (1 ml) of either KRAD-14 peptide (500 nM) or each of the control peptides (500 nM) were incubated with thrombin (100 nM) at 37° C. and the thrombin activity measured at the beginning and at intervals up to 60 min as follows. The enzymatic activity of thrombin was measured by the addition of 100 μl aliquots to 0.45 ml of thrombin substrate (N-benzoyl-phe-val-arg-p-nitroanilide) (0.26 mM) which was then incubated at 37° C. for exactly 10 min, before the addition of 0.45 ml of 20% (w/v) acetic acid. The absorption was measured at 405 nm against a thrombin (100 nM) control assayed similarly. The procoagulant activity of thrombin was measured by the addition of 100 μl of the sample to control plasma (100 μl) and 25 mM CaCl2 solution and measuring the clotting time. A thrombin 100 nM) control was included in the assay against which comparisons were made.

factor V = test: Influence on factor V procoagulant activity (factor V-deficient plasma); format: biochemical; details: factor V 1 μM, 37° C., preactivated factor V deficient plasma; read-out: Kdapp, inhibition of coagulation upon pre-incubation with factor V
Experimental: Samples (1 ml) of either KRAD-14 peptide (500 nM) or the control peptide (500 nM) were incubated with pre-activated factor V (100 nM) at 37° C. and the factor V activity measured at the beginning and at intervals up to 60 min as follows. The procoagulant activity of factor V was measured by the addition of 100 μl of the sample to factor V-deficient plasma (100 μl) pre-activated by incubation (2 min) with thromboplastin (200 nM) in the presence of CACl2 (25 mM), and measuring the clotting time. The activity was measured against a standard curve and the percentage inhibition calculated against the initial factor V activity. The curves are typical of data from three separate experiments.
Three 1 ml samples containing recombinant KRAD-14 peptide (20 (♦) 40 (▾) and 80 (▪) nM) were mixed with factor V (1 μM). 100 μl of the each sample was removed immediately and assayed for […] by addition to factor V-deficient plasma, pre-activated by incubation (2 min) with thromboplastin (200 nM) in the presence of CaCl2 (25 mM), and measuring the clotting time. The rest of the samples were incubated at 37° C. and further 100 μl samples were removed at intervals up to 40 min and measured as before. The activity was measured against a standard curve and the percentage inhibition calculated against the initial factor V activity. The curves are typical of data from 3 separate experiments.

[3] = system: factor VII/thromboplastin; test: Effect on activation and activity of factor VII (clotting in factor VII deficient plasma); format: biochemical
Experimental: In order to assess whether the action of KRAD-14 peptide was directed to the proteolytic activity of factor VIIa/thromboplastin or the activation of factor VII by interaction with thromboplastin, first thromboplastin (200 nM) and factor VII (200 nM) were incubated for 10 min in the presence of 25 mM CaCl2, prior to addition of KRAD-14 peptide and a further 10 min incubation. The samples were then assayed by addition to factor VII deficient plasma and measuring the clotting time. Appropriate controls devoid of KRAD-14 peptide were included in each experiment.
In order to assess whether the action of KRAD-14 peptide was directed to the proteolytic activity of factor VIIa/thromboplastin or the activation of factor VII by interaction with thromboplastin, first thromboplastin (200 nM) and factor VII (200 nM) were incubated for 10 min in the presence of 25 mM CaCl2, prior to addition of […] (500 nM) and a further 10 min incubation. In the second experiment thromboplastin, factor VII and factor Xa (100 nM) were pre-incubated for 10 min in the presence of 25 mM CaCl2, prior to addition of KRAD-14 peptide and a further 10 min incubation. The samples were then assayed by addition to factor VII deficient plasma and measuring the clotting time. […] Conversely, it was able to inhibit the activation of the pro-enzyme (inhibition=74%+8) (Table 2). […]

thromboplastin [4] = molecular target: T1, thromboplastin; test: Stability of the inhibitory effect of KRAD-14 following reconstitution; format: physicochemical
Experimental: However, KRAD-14 was effective at concentration as low as 50 nM. Moreover, the inhibition was unstable and completely disappeared after approximately 8 min following reconstitution. This deterioration was partially stabilised by adjusting the pH and addition of 5 nM bovine serum albumin as a stabiliser. However, the inhibitory effect deteriorated rapidly, completely disappearing after 15 min, following reconstitution.

T1 sequence (P13726 33-295): as above

influence of plasma on the ability to inhibit thromboplastin activity (in words) (thromboplastin [1]; plasma included during the incubation prior to assaying, peptide 500 nM): did not significantly affect
inhibition of thromboplastin activity in the presence of plasma (thromboplastin [1]; plasma present, 37° C., 2 min incubation): 74%
inhibition at 0.5 µM ([2]; against distilled water control): > 99%
% Inhibition ([2]; against distilled water control, listed as Recombinant KRAD-14 peptide): 99%
Procoagulant Activity ([2]; distilled water control 4.70 U/ml): (0.05 U/ml)
effect on the amidolytic proteolytic activity of thrombin (thrombin): did not affect
effect on the clotting ability of thrombin (thrombin): did not affect
Kd (factor V): 285 nM
inhibition of the activation of the pro-enzyme (factor VII) ([3]; thromboplastin 200 nM, factor VII 200 nM, 25 mM CaCl2, peptide 500 nM, 10 min): 74%
time after reconstitution at which the inhibition completely disappeared (thromboplastin [4]; no stabiliser): approximately 8 min
time after reconstitution at which the inhibitory effect completely disappeared (thromboplastin [4]; pH adjusted and 5 nM bovine serum albumin added as a stabiliser): 15 min
Sequence: KAQSKKNKHRHSTT [KRAD-14]
inhibition of the activity of factor VIIa ([3]; peptide 500 nM added after pre-incubation, further 10 min, factor VII deficient plasma): 12%
